Common to all, as to test: growth of human tumour cells (NCI), 48 h
In experiment [1] the test system is IGROV1 ovarian.
For experiment [2], the system named is SW-620 colon.
Experiment [3] relates to HCT-116 colon.
Experiment [4] concerns COLO 205 colon.
The test system of experiment [5] is PC-3 prostate.
The test system of experiment [6] is RPMI-8226 leukemia.
Experiment [7] deals with SK-MEL-2 melanoma.
In experiment [8] the test system is SK-MEL-5 melanoma.
In experiment [9] the test system is NCI-H226 lung.
Experiment [10] concerns DU-145 prostate.

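The compound was tested at five concentrations on cells cultured in 96-well plates, with a 48-hour exposure period. GI50: concentration for 50% inhibition of growth. TGI is the concentration that stops growth completely.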 Where only a bound is given, the exact number is not on record here.

Turning to `CC(=O)c1ccc(NC(=O)CSc2nnc(-c3cc(-c4ccc(C)cc4)nc4ccccc34)o2)cc1`, the GI50 in experiment [1] is 3.31 µM; in experiment [2], 3.24 µM; in [3], 2.25 µM; in experiment [4], 6.54 µM; in experiment [5] it was 4.36 µM; in [6], 3.37 µM. The GI50 in experiment [7] is 12.3 µM; in [8], 3.42 µM; in experiment [9], 2.39 µM; in [10], 4.52 µM. Also, the TGI is above 100 µM in experiment [1]; above 100 µM in experiment [2]; 6.1 µM in experiment [3]; above 100 µM in [4]; above 100 µM in [5]; above 100 µM in experiment [6]. Besides, the TGI was 31.2 µM in experiment [7], above 100 µM in experiment [8], 6.37 µM in [9] and above 100 µM in experiment [10].

As to `COc1cc(C(=O)/C=C/c2cc(C(=O)c3cc(OC)c(OC)c(OC)c3)ccc2OC)ccc1N`, the GI50 in [1] is 2.07 µM; in [2], 0.374 µM; in experiment [3], 0.661 µM; in [5] it was 1.8 µM; in experiment [6] it was 0.419 µM; in experiment [7] it was 1.63 µM. Moreover, the GI50 is 1.02 µM in experiment [8], 2.14 µM in experiment [9] and 1.03 µM in [10]. The TGI in experiment [1] is 8.62 µM; in [2] it was above 100 µM; in experiment [3] it was 2.03 µM; in experiment [5] it was 7.4 µM; in experiment [6] it was 14.1 µM; in [7], 3.72 µM. In addition, the TGI came out at 2.18 µM in [8], 7.39 µM in [9] and 4.59 µM in experiment [10].

For the compound `CCCCCCCC/C=C/CCCCCCCC1=NCC[N+]1(CCO)CCO`, the GI50 in experiment [1] is 1.59 µM; in experiment [2], 1.82 µM; in [3], 2.81 µM; in experiment [4], 1.98 µM; in experiment [5] it was 1.97 µM; in [6], 2.71 µM. Further, the GI50 was 2.69 µM in experiment [7], 2.24 µM in experiment [8], 4.16 µM in experiment [9] and 4.41 µM in [10]. For the same compound, the TGI in experiment [1] came out at 3.35 µM; in [2], 4.38 µM; in [3] it was 8.78 µM; in experiment [4], 4.91 µM; in [5], 6.17 µM; in experiment [6], 10.8 µM. For the same compound, the TGI in experiment [7] came to 6.01 µM; in experiment [8], 5.68 µM; in experiment [9], 19.8 µM; in [10] it was 16.2 µM.

On to `CCN(CC)c1cc(/C=C/c2ccc(OC)c(OC)c2)nc2cc(F)c(F)cc12`, for which the GI50 in [1] is 3.46 µM; in [2] it was above 100 µM; in experiment [3], 5.35 µM; in experiment [4] it was 26.7 µM; in experiment [5] it was above 100 µM; in experiment [6] it was 22.1 µM. The GI50 in experiment [7] was 1.83 µM; in experiment [8], 6.33 µM; in experiment [9], 2.7 µM; in [10], 31.6 µM. Besides, the TGI is 12 µM in [1]; above 100 µM in experiment [2]; 17.5 µM in experiment [3]; above 100 µM in experiment [4]; above 100 µM in [5]; above 100 µM in [6]. Also, the TGI was 3.45 µM in [7], above 100 µM in experiment [8], 9.07 µM in experiment [9] and above 100 µM in experiment [10].

Take `COC(=O)c1ccc2c(c1)nc(-c1cc3ccccc3[nH]c1=O)n2-c1cc(C(C)(C)C)[nH]n1`: the GI50 is 1.23 µM in [1]; 1.74 µM in experiment [3]; 2.27 µM in [5]; 0.443 µM in experiment [6]; 2.82 µM in experiment [7]; 2.61 µM in experiment [8]. Also, the GI50 is 16.5 µM in [9] and 2.55 µM in experiment [10]. Further, the TGI in experiment [1], in [3], in [5], in experiment [7], in [8] and in experiment [9] was above 100 µM in each case. In [10], this compound returned a TGI above 100 µM.

`CCn1c2c(n(CC)c1=S)-c1c(n(CC)c(=S)n1CC)SSSS2`: the TGI in [1] is 34.3 µM; in [2], 3.29 µM; in experiment [3], 11 µM; in experiment [4], 19.1 µM; in experiment [6] it was 9.34 µM; in [7], 31.2 µM. Also, the TGI in experiment [8] was 43.1 µM; in experiment [9], 52.2 µM; in [10], above 100 µM.

Turning to `COc1cc(/C=C/c2cc(/C=C/c3ccc(O)c(OC)c3)n(-c3c(C)cccc3C)c(=O)n2)ccc1O`, the GI50 in experiment [1] is 1.24 µM; in [3] it was 0.695 µM; in [4], 2.07 µM; in experiment [5] it was 1.17 µM; in experiment [7], 0.436 µM; in experiment [8] it was 0.559 µM. In experiment [9], the GI50 is 2.36 µM. For the same compound, the TGI in experiment [1] amounted to 6.87 µM; in experiment [3], 3.38 µM; in experiment [4], 4.19 µM; in experiment [5] it was 6.52 µM; in [7], 1.73 µM; in experiment [8], 1.9 µM. Moreover, the TGI in [9] came to 7.59 µM.

As for `O=C1C(Br)=CC2(C=C1Br)CCN=c1c2c(O)c2nc3ccccc3c3ccnc1c23`, the GI50 was 0.846 µM in experiment [1]; 0.712 µM in experiment [2]; 0.674 µM in [3]; 1.05 µM in experiment [4]; 1.44 µM in experiment [5]; 0.591 µM in experiment [6]. Also, the GI50 in experiment [8] was 1.4 µM; in [10], 1.95 µM. For the same compound, the TGI in experiment [1] came out at 7.22 µM; in experiment [2], 1.72 µM; in experiment [3], 6.15 µM; in experiment [4], 3.03 µM; in experiment [5], 5.27 µM; in experiment [6], 1.57 µM. Also, the TGI in experiment [8] was 6.93 µM; in [10], 24.8 µM.

The values above are taken from PubChem BioAssay (NCI).
